Tested on: intimal hyperplasia after balloon injury of the carotid artery
Test: Balloon injury model of the carotid artery
Type: in vivo, rat
Details: CO 250 ppm for one hour prior to balloon injury; 14 days after injury; n=8-10
From the text: Animals. Male (250-350 g) Brown Norway rats (RT1^n) were used as aortic graft donors and male (250-350 g) Lewis rats (RT11) as recipients. Dawley (400-450 g) rats were used in the balloon injury model. Adult male C57BL/6, C57/S129, p21^−/− and p53^−/− null mice were purchased from Jackson Laboratory (Bar Harbor, Me.). mkk3^(−/−) null mice were generated as described Lu et al. (EMBO. 18:1845-1857 (1999)). The inos^−/− and enos^−/− mice were bred at the University of Pittsburgh. Aortic transplant model. Aortic transplantation was performed as described in Shimizu et al. (Nat. Med. 7:738-741 (2001)). Briefly, 3 to 4 cm of descending aorta was harvested from the donor and implanted between the renal arteries and the aortic bifurcation of the recipient. Both edges of the native abdominal aorta were ligated. Balloon injury model. Balloon angioplasty was carried out as described in Murakami et al. (Atherosclerosis 157:361-368 (2001)). […] [^3H]thymidine incorporation was measured by scintillation spectroscopy and presented as mean counts/min/well. […] Areas from eight to ten captured images were calculated using digital imaging software as number of pixels corresponding to those areas. Twenty-four to forty-eight sections from each group were statistically analyzed with SPSS software version 10. […]

[C-]#[O+] [CO, carbon monoxide]
Intimal hyperplasia, suppression compared to control animals exposed to air: 74±8%

Reference: patent publication US7691416B2, “Methods of treating vascular disease” (priority 2002, dated 2010)
